Results published in patent US11040053B2, “Compositions and methods for activating “stimulator of interferon gene”13 dependent signalling” (CHINOOK THERAPEUTICS, INC., priority 2015, dated 2021).

Assays:
[1] = target: T1, human-STING(E149-S379)H232R protein (Homo sapiens, UniProt Q86WV6, H232R); experiment: Surface Plasmon Resonance binding to hSTING WT; conditions: Biacore T200, 15° C., steady-state analysis
T1 construct: His6 (C); made in house; host or cells: E. coli
Protocol: Binding of the mono- and di-F CDN compounds was assessed using Surface Plasmon Resononce to determine a binding constant. An E. coli expression construct (human-STING[E149-S379]H232R) was prepared harboring the protein sequence:
Aliquots were prepared and stored at −80° C. in 30 mM Tris pH 7.5/100 mM NaCl/10% glycerol.
N-terminal avi-tagged human-STING(E149-S379)H232R protein was immobilized (2500 RUs) on a streptavidin chip at 15° C. in a Biacore T200 (GE Healthcare). Titrations of cyclic dinucleotides (CDNs as indicated in Table 6) in 30 mM Tris pH 7.5/50 mM NaCL/0.005% Tween 20/1 mM DTT/2% DMSO, were profiled (30 μLs/min, 180 seconds for sample contact/120 seconds for dissociation) against hSTING at 15° C. Kinetic analysis of the data was performed using Biacore T200 Evaluation software. Steady-state analysis of the data was performed using Graphpad Prism 6.0 software, using one site-specific binding algorithm (Equation is Y=Bmax*X/(Kd+X)).

hSTING(WT) = hSTING(WT) (Homo sapiens, UniProt Q86WV6, H232R); experiment: Differential scanning fluorometry (DSF) binding to purified hSTING WT; design: DNA encoding amino acids 140-379 (amino acid numbering corresponding to Swiss Prot Q86WV6); 6xHIS (N, cleaved yes); SUMO (N, cleaved yes); made in house; host or cells: Rosetta2 (DE3) E. coli; conditions: DSF, 1 mg/ml STING AA140-379, ligand 1 mM
hSTING(WT), sequence (Q86WV6 140-379 H232R): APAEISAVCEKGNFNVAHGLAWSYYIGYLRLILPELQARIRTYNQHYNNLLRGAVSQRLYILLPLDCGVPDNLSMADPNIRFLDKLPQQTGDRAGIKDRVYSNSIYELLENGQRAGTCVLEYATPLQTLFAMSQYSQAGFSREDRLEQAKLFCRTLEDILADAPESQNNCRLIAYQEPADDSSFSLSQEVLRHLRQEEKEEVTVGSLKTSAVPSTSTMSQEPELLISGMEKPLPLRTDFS
Protocol: (§1) Cells were grown in lysogeny broth at 37° C. until a […] absorbance of 0.6 was reached. […] Cell pellets were re-suspended on ice in a buffer containing 50 mM Tris hydrochloride (Tris-HCl) pH 7.5, 500 mM sodium chloride (NaCl), 20 mM imidazole, 10% glycerol, 1 mM tris(2-carboxyethyl)phosphine hydrochloride (TCEP) and protease inhibitor tablet (Pierce) (Buffer A). Cells were lysed using an S-450D sonifier (Emmerson industrial) on ice. […] Protein was aliquoted, flash frozen in liquid nitrogen and stored at −80° C. until use.
(§2) The protein is heated in the presence of a dye that binds to and fluoresces in hydrophobic environments. The protein is thermally denatured by heating resulting in increased dye binding to the unfolded protein and fluorescence. The temperature midpoint (Tm) of a proteins denaturation is established by calculating the half maximal value of the denaturation curve. The temperature midpoint of the protein in the presence of a ligand is directly related to the affinity of the ligand for the protein and therefore its ability to stabilize the protein at higher temperatures.
(§3) Samples were placed in hard shell PCR plate (Bio-Rad). The fluorescence as a function of temperature was recorded in a CFX 96 real time PCR machine (Bio-Rad) reading on the HEX channel, excitation 450-490, emission 560-580 nm. The temperature gradient was from 15-80° C. ramping 0.5° C. per 15 seconds and recording every 0.5° C. After subtraction of the background signal from a sample lacking protein and ligand. The midpoint temperature (Tm) was calculated by fitting the curves of the fluorescence as a function of temperature to a Boltzmann sigmoidal function (Graph Pad Prism).

hSTING(REF) = hSTING(REF) (Homo sapiens, UniProt Q86WV6); experiment: Differential scanning fluorometry (DSF) binding to purified hSTING REF allele; design: DNA encoding amino acids 140-379 (amino acid numbering corresponding to Swiss Prot Q86WV6); 6xHIS (N, cleaved yes); SUMO (N, cleaved yes); made in house; host or cells: Rosetta2 (DE3) E. coli; conditions: for hSTING Tm Shift REF: DSF, 1 mg/ml STING AA140-379, ligand 1 mM; for binding relative to OH reference compound, in words: Table 4 comment, REF allele hSTING
hSTING(REF), sequence (Q86WV6 140-379): as the sequence (Q86WV6 140-379 H232R) above, with R93H counted along it
Protocol: as §1, §2, §3

HAQ allele hSTING = target: T2, HAQ allele hSTING (Homo sapiens, UniProt Q86WV6, G230A/H232R/R293Q); experiment: Differential scanning fluorometry (DSF) binding to purified hSTING HAQ allele; conditions: DSF, 1 mg/ml STING AA140-379, ligand 1 mM
T2 construct: DNA encoding amino acids 140-379 (amino acid numbering corresponding to Swiss Prot Q86WV6); 6xHIS (N, cleaved yes); SUMO (N, cleaved yes); made in house; host or cells: Rosetta2 (DE3) E. coli
T2 sequence (Q86WV6 140-379 G230A/H232R/R293Q limits assumed): as the sequence (Q86WV6 140-379 H232R) above, with G91A, R154Q counted along it
Protocol: as §1, §2, §3

hSTING HAQ allele = target: T3, hSTING HAQ allele (Homo sapiens, UniProt Q86WV6, G230A/H232R/R293Q/R71H); experiment: IRF-3 inducible secreted luciferase reporter in THP1-Dual cells without digitonin; type: cell-based; conditions: for activity relative to OH reference compound, in words: Table 5 comment, THP1 cells without digitonin; for EC50: without digitonin in THP1 cells (HAQ allele)
T3 construct: a human monocyte cell line containing the hSTING HAQ allele; host or cells: THP1-Dual cells
T3 sequence (Q86WV6 whole entry R71H/G230A/H232R/R293Q): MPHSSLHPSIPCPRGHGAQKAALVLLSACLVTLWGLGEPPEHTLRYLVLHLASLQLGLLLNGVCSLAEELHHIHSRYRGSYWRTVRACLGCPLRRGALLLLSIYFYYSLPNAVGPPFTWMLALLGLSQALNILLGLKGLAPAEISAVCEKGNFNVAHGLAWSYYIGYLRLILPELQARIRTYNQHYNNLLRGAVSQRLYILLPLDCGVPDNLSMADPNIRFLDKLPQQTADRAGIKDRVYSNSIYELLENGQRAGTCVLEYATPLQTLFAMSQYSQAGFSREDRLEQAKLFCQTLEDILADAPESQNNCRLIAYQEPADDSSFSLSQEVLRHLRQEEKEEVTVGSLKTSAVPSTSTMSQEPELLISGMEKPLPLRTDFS
Protocol: After 30 minutes, cells were washed and fresh RPMI media containing 10% FBS was added, and cells were incubated at 37° C. with 5% CO2 Cell culture supernatants from each sample were collected after overnight incubation, and 10 μL of the cell culture supernatants was added to 50 μL QUANTI-Luc reagent (Invivogen). Type I interferon activation was determined by measuring secreted luciferase levels on a SpectraMax M3 spectrophotometer (Molecular Devices). The EC50 value was determined from the dose-response curve for the 10 concentrations from the serial dilution of the reference compounds and compounds of the invention tested in this assay as listed in Table 5.

T1 sequence (Q86WV6 with tags, fused parts or gaps H232R): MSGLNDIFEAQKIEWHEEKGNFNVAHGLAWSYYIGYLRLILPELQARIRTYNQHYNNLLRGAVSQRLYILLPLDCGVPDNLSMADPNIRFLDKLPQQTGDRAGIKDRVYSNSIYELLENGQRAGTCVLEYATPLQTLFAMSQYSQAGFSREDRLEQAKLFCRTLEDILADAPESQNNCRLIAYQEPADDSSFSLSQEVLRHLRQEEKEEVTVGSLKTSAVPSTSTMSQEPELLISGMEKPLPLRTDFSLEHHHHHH

Row | SMILES | Kd [1] [µM] | hSTING Tm Shift WT (hSTING(WT)) [°C] | hSTING Tm Shift REF (hSTING(REF)) [°C] | hSTING Tm Shift HAQ (HAQ allele hSTING) [°C] | activity relative to OH reference compound, in words (hSTING HAQ allele) | EC50 (hSTING HAQ allele) [µM] | binding relative to OH reference compound, in words (hSTING(REF))
1 | Nc1ncnc2c1ncn2[C@@H]1O[C@@H]2COP(=O)(O)O[C@H]3[C@@H](F)[C@H](n4cnc5c(N)ncnc54)O[C@@H]3COP(=O)(O)O[C@H]2[C@H]1F [3'3'-(2'F-A)(2'F-A), reference compound] | 0.011 | 12.6 | 6.4 | 20.6 |  |  | 
2 | Nc1ncnc2c1ncn2[C@@H]1O[C@@H]2CO[P@@](=O)(S)O[C@H]3[C@@H](F)[C@H](n4cnc5c(N)ncnc54)O[C@@H]3CO[P@](=O)(S)O[C@H]2[C@H]1F [Compound 6a, (2R,3R,3aR,5R,7aR,9R,10R,10aR,12S,14aR)-2,9-bis(6-amino-9H-purin-9-yl)-3,10-difluoro-5,12-dimercaptooctahydro-2H,7H-difuro [3,2-d:3′,2′-j][1,3,7,9]tetraoxa[2,8]diphosphacyclododecine 5,12-dioxide] | 0.029 |  |  |  | improved activity | 8 | 
3 | Nc1nc2c(ncn2[C@@H]2O[C@@H]3CO[P@@](=O)(S)O[C@H]4[C@@H](F)[C@H](n5cnc6c(N)ncnc65)O[C@@H]4CO[P@@](=O)(S)O[C@H]3[C@H]2F)c(=O)[nH]1 [Compound 14, 2-Amino-9-((2R,3R,3aR,5R,7aR,9R,10R,10aR,12R,14aR)-9-(6-amino-9H-purin-9-yl)-3,10-difluoro-5,12-dimercapto-5,12-dioxidooctahydro-2H,7H-difuro [3,2-d:3′,2′-j][1,3,7,9]tetraoxa[2,8]diphosphacyclododecin-2-yl)-1,9-dihydro-6H-purin-6-one] | 0.093 | 19.3 | 12.5 | 34.2 |  | 3 | 
4 | O=C(Nc1ncnc2c1ncn2[C@@H]1O[C@@H]2CO[P@@](=O)(S)O[C@H]3[C@@H](F)[C@H](n4cnc5c(NC(=O)c6ccccc6)ncnc54)O[C@@H]3CO[P@@](=O)(S)O[C@H]2[C@H]1F)c1ccccc1 [Compound 27, N,N′-(((2R,3R,3aR,5R,7aR,9R,10R,10aR,12R,14aR)-3,10-difluoro-5,12-dimercapto-5,12-dioxidooctahydro-2H,7H-difuro [3,2-d:3′,2′-j][1,3,7,9]tetraoxa[2,8]diphosphacyclododecine-2,9-diyl)bis(9H-purine-9,6-diyl))dibenzamide] |  | 8.9 | 8.7 | 10.1 |  | > 150 | improved binding
5 | Nc1nc2c(ncn2[C@@H]2O[C@@H]3COP(=O)(O)O[C@H]4[C@@H](F)[C@H](n5cnc6c(N)ncnc65)O[C@@H]4COP(=O)(O)O[C@H]3[C@H]2F)c(=O)[nH]1 [Compound 30, 2-amino-9-((2R,3R,3aR,7aR,9R,10R,10aR,14aR)-9-(6-amino-9H-purin-9-yl)-3,10-difluoro-5,12-dihydroxy-5,12-dioxidooctahydro-2H,7H-difuro[3,2-d:3′,2′-j][1,3,7,9]tetraoxa[2,8]diphosphacyclododecin-2-yl)-1,9-dihydro-6H-purin-6-one] |  | 14.3 | 7.8 | 27.7 |  | 10 | 

Results, then the molecule that gave them:

Row | Kd [1] [µM] | hSTING Tm Shift WT (hSTING(WT)) [°C] | hSTING Tm Shift REF (hSTING(REF)) [°C] | hSTING Tm Shift HAQ (HAQ allele hSTING) [°C] | activity relative to OH reference compound, in words (hSTING HAQ allele) | EC50 (hSTING HAQ allele) [µM] | binding relative to OH reference compound, in words (hSTING(REF)) | SMILES
6 | 0.098 |  |  |  | improved activity | 18 |  | Nc1nc2c(ncn2[C@@H]2O[C@@H]3CO[P@](=O)(S)O[C@H]4[C@@H](F)[C@H](n5cnc6c(N)ncnc65)O[C@@H]4CO[P@@](=O)(S)O[C@H]3[C@H]2F)c(=O)[nH]1 [Compound 14a, 2-amino-9-((2R,3R,3aR,5R,7aR,9R,10R,10aR,12S,14aR)-9-(6-amino-9H-purin-9-yl)-3,10-difluoro-5,12-dimercapto-5,12-dioxidooctahydro-2H,7H-difuro [3,2-d:3′,2′-j][1,3,7,9]tetraoxa[2,8]diphosphacyclododecin-2-yl)-1,9-dihydro-6H-purin-6-one]
7 | 0.684 | 9.3 | 7.0 | 15.3 |  | 89 |  | Nc1nc2c(ncn2[C@@H]2O[C@@H]3CO[P@](=O)(S)O[C@H]4[C@@H](F)[C@H](n5cnc6c(N)ncnc65)O[C@@H]4CO[P@@](=O)(S)O[C@H]3[C@H]2O)c(=O)[nH]1 [Compound 24a, 2-amino-9-((2R,3R,3aS,5R,7aR,9R,10R,10aR,12S,14aR)-9-(6-amino-9H-purin-9-yl)-10-fluoro-3-hydroxy-5,12-dimercapto-5,12-dioxidooctahydro-2H,7H-difuro[3,2-d:3′,2′-j][1,3,7,9]tetraoxa[2,8]diphosphacyclododecin-2-yl)-1,9-dihydro-6H-purin-6-one]
8 |  | 13.3 | 10.5 | 18.4 | improved activity | 23 | improved binding | CC(C)C(=O)Nc1nc2c(ncn2[C@@H]2O[C@@H]3CO[P@@](=O)(S)O[C@H]4[C@@H](F)[C@H](n5cnc6c(N)ncnc65)O[C@@H]4CO[P@@](=O)(S)O[C@H]3[C@H]2F)c(=O)[nH]1 [Compound 26, N-(9-((2R,3R,3aR,5R,7aR,9R,10R,10aR,12R,14aR)-9-(6-amino-9H-purin-9-yl)-3,10-difluoro-5,12-dimercapto-5,12-dioxidooctahydro-2H,7H-difuro[3,2-d:3′,2′-j][1,3,7,9]tetraoxa[2,8]diphosphacyclododecin-2-yl)-6-oxo-6,9-dihydro-1H-purin-2-yl)isobutyramide]
